Columns and labels:
bone marrow stem cells [1] = assay: Chemotaxis of stem cells, Boyden chamber assay; type: cell-based; conditions: 24 hours; control group (antibiotic) = 100.00; composition 10% of medium volume, positive controls 100 ng/mL
Description: 1×10^4 bone marrow stem cells were seeded onto an upper insert of a transwell and cultured for 24 hours in LG DMEM containing an antibiotic (HyClone, Thermo Fisher Scientific Inc., Waltham, MA, USA). […] LG DMEM not containing FBS was used as a negative control group, and G-CSF 100 ng/mL, SDF-1α 100 ng/mL and IL-1β 100 ng/mL were compared as positive control groups of chemotaxis. In order to count the cells that migrated from the insert to the bottom, the cells remaining on the insert was removed 24 hours later and only the cells at the bottom were left. After fixing with 4% paraformaldehyde and staining with crystal violet, the cells were observed under a microscope. For quantification of the cells that migrated to the bottom, OD540 was measured after dissolving the crystal violet with acetic acid. All experiments were repeated 3 times.

bone marrow stem cells [2] = assay: Chemotaxis of stem cells, agarose chemotaxis assay; type: cell-based; conditions: 72 hours; control group (antibiotic) = 100.00; composition 50% of medium volume, positive controls 100 ng/mL
Description: First, after preparing 0.8% agarose gel on a 6-well plate, three holes were perforated in each well with intervals of 5 mm using a 5-mm skin biopsy punch. 1×10^4 bone marrow stem cells were dispensed into LG DMEM containing 10% FBS and an antibiotic at the center. After waiting for 5 hours until the cells were attached, the medium was replaced with LG DMEM containing the antibiotic only. […] In addition, G-CSF 100 ng/mL, SDF-1α 100 ng/mL and IL-1β 100 ng/mL were treated for comparison as positive control groups of chemotaxis. 72 hours later, the cells were fixed with 4% paraformaldehyde, stained with DAPI and observed with a fluorescence microscope. The cells that migrated to the left and right sides were imaged with the fluorescence microscope. The number of cells that migrated 100 μm or longer from the end of each hole was counted. All experiments were repeated 3 times.

Molecule	Number of migrated cells (bone marrow stem cells [1])	Number of migrated cells (bone marrow stem cells [2])
SDF-1α: positive control of chemotaxis, 100 ng/mL	365.28 ± 280.55	466.68 ± 348.04
IL-1β: positive control of chemotaxis, 100 ng/mL	358.85 ± 271.58	314.13 ± 220.72
G-CSF: positive control of chemotaxis, 100 ng/mL (protein, UniProt P09919 31-207, looked up) Granulocyte …: TPLGPASSLPQSFLLKCLEQVRKIQGDGAALQEKLVSECATYKLCHPEELVLLGHSLGIPWAPLSSCPSQALQLAGCLSQLHSGLFLYQGLLQALEGISPELGPTLDTLQLDVADFATTIWQQMEELGMAPALQPTQGAMPAFASAFQRRAGGVLVASHLQSFLEVSYRVLRHLAQP	415.01 ± 338.54	393.76 ± 280.52

Source: patent US12558405B2, “Pharmaceutical composition using endogenous cells for preventing or treating musculoskeletal disorders” (SEOUL NATIONAL UNIVERSITY R&DB FOUNDATION, priority 2019, dated 2026)
